Test [1] concerns 4E-BP1 (S65 phosphorylation; mTOR-mediated site). In kind it is cell-based, human. Here is the method: Transfections were carried out essentially as described by Manteuffel et al., 1997, Mol Cell. Biol. 17, 5426 with the 4EBP-1 construct described therein. The expression and phosphorylation of transiently-transfected HA-4E-BP1 was measured using a polyclonal anti-HA antibody and phosphospecific antibody against S65, respectively, essentially as described above (Pullen et al., 1998). The anti-HA antibody was obtained from a commercial source (Santa Cruz Biotechnology, Inc). The mTOR-mediated phosphorylation site in 4E-BP1 is S65.

Test [2] has as its system HEK293 cells (intracellular ATP). Description: Intracellular ATP levels in HEK293 cells, luciferase-based assay. The following applies: for ATP levels compared to insulin stimulated control (100%): Example 4; for ATP levels as a percentage of the insulin-stimulated control (100%): mock-transfected HEK293, insulin-stimulated, treated as in Example 1 (100 mM 2-deoxyglucose or 20 mM rotenone, 30 min). In kind it is cell-based, human. Here is the method:
Because mTOR is sensitive to glycolitic inhibitors, we wanted to determine whether mTOR is sensitive to alterations in intracellular ATP concentrations. ATP levels were measured from mock-transfected HEK293 cells (using empty vector) treated as in Example 1, using a luciferase-based assay. Retonone and 2-deoxyglucose treatments were carried out on insulin-stimulated cells.
To generate extracts for ATP assays, cells were washed twice with 10 ml ice cold PBS, drained thoroughly, scraped into 1 ml of buffer (100 mM Tris-HCl and 4 mM EDTA pH 7.75) and transferred into an Eppendorf tube before flash freezing in liquid nitrogen. The frozen cells were boiled for 3 min and then placed on ice for 5 min followed by centrifugation at 13,000 rpm for 5 min at 4° C. ATP levels in the extract were measured in a microtiter plate by a Luciferase-based assay (Roche, ATP Bioluminescence Assay Kit CLS II) using a Microlumat LB96P microtiter plate reader (EG&G Berthold). In an illustrative set of experiments and expressing results as a percentage of the insulin-stimulated control (100%), ATP levels increased slightly in insulin treated cells (94% in unstimulated cells), decreased in 2-deoxyglucose treated cells (40-49%) and rotenone-treated cells (75-83%).
(§1) Rapamycin resistance was conferred by fusing glutathione-S-transferase to the NH2-terminus of S6K1 and truncating the COOH-terminus, creating a construct termed GST-ΔC-S6K1 (Pullen et al.,1 998). For the construction of the GST-ΔC-S6K1 (also known as GST-ΔC104-S6K1) and D3E, K100Q-S6K1-GST plasmids, similar cloning strategies were used. S6K1-GST or GST-ΔC-S6K1 from transiently-transfected, serum-starved HEK293 cells were extracted directly or after insulin stimulation with or without the addition of 20 nM rapamycin or 100 nM wortmannin. Kinase activities, expression levels and T389 phosphorylation were carried out essentially as described above. Expression and activity of S6K1-GST or GST-ΔC-S6K1 were measured after insulin stimulation alone or with increasing amounts of 2-deoxyglucose (20, 40 and 100 mM) essentially as described above. Mock-transfected HEK293 cells were treated using the same conditions and extracted for ATP analysis

The target of test [3] is T1, mTOR (HA-mTORwt) (Homo sapiens, UniProt P42345).
T1 construct: expressed in transfected cells; host or cells: HEK293 (anti-HA immunoprecipitate)
Description: In vitro T389 kinase activity of HA-mTORwt immunoprecipitated from treated HEK293 cells. In kind it is cell-based. The note with it: cells treated with 100 mM 2-deoxyglucose; assay with 1 mM ATP, 30 min at 30° C. The protocol: (§2) Briefly, transiently transfected, hemaglutinin-tagged (HA) wild-type mTOR (HA-mTORwt) from HEK293 cells were serum starved for 16 hours before insulin stimulation. The cells were then treated with (or controls without) 100 mM 2-deoxyglucose or subjected to amino acid starvation as described above. Cell extracts were prepared for immunoprecipitations with a monoclonal anti-HA antibody. The immunocomplex was washed once with 1 M NaCl in assay buffer (30 mM MOPS (pH7.5), 5 mM NaF, 20 mM β-glycerol phosphate, 1 mM dithioerythritol, 0.1% Triton X-100 and 10% glycerol) and twice with assay buffer alone. […] Quantitation for Km measurements was carried out using scanning densitometry and ImageQuant software (Molecular Dynamics).

The test system of test [4] is Mitogen-Activated Protein Kinase (MAPK). Nature of the test: TPA-induced HA-MAPK activation (MBP phosphorylation). The note with it: 100 nM TPA, 100 mM 2-deoxyglucose, 30 min. The format is cell-based, human. Here is the method:
(§3) Transiently-transfected, HA-tagged PKB activation was measured in vitro using histone 2B (H2B) as substrate (Franke et al., 1995, Cell 81, 727) after immunoprecipitation from serum-starved cells extracted directly or after insulin stimulation with or without the addition of 100 mM 2-deoxyglucose, 20 nM rapamycin or 100 nM wortmannin. Rapamycin and wortmannin were added to serum-starved cells 30 min prior to insulin-stimulation. HA-PKB expression and S473 phosphorylation were measured essentially as described above. HA-MAPK kinase activity toward using myelin basic protein (MBP) was measured from serum-starved cells extracted directly or after 100 nM TPA stimulation in the presence or absence of 20 nM rapamycin or 100 mM 2-deoxyglucose for 30 min (N. Pullen et al., 1998).

A further test has as its system aminoacylated tRNA. Nature of the test: tRNA aminoacylation in HEK293 cells (acid/urea gel, Northern blot). The format is cell-based, human. The note with it: HEK293, insulin stimulation with 2-deoxyglucose. The protocol:
Briefly, total RNA was isolated from serum-starved HEK293 cells directly or after insulin stimulation with or without 2-deoxyglucose or amino acid starvation. As a control marker, tRNA was […] by mild alkaline hydrolysis in 0.1 M Tris-HCl (pH 8.0) at 75° C. for 5 min. After resolution on an acid/urea gel (Enriquez et al., in Methods Enzymol., Acad. Press, San Diego, vol. 264, pp. 183.), tRNA was visualized with ethidium bromide staining. Expression levels and phosphorylation state of endogenous S6K1 and 4E-BP1 were also measured from serum-starved cells, stimulated with insulin in the presence or absence of amino acids in the media essentially as described in Example 1.
To further test this finding, selected tRNAs were examined by Northern blot analysis of the tRNA resolved by acid/urea gel electrophoresis as described above. The individual tRNA species were probed after electrotransfer to nylon membrane, with radiolabelled oligonucleotides specific for tRNALeu and tRNAHis, namely: tRNALeu 5′-GCGCCTTAGACCGCTCGGCCACG-3′ (SEQ ID NO:1); tRNAHis 5′-GGTGCCGTGACTCGGATTCGAACCG-3′ (SEQ ID NO:2); and tRNAThr 5′-GCG AGA AAT GM CTC GCG-3′ (SEQ ID NO:3).

The test system of test [5] is S6K1 (T389 phosphorylation / activation; reporter for mTOR function). Description: Insulin-induced S6K1 activation and T389 phosphorylation in HEK293 cells (reporter for mTOR function). The following applies: HEK293, 200 nM insulin, 100 mM 2-deoxyglucose or 20 mM rotenone, 30 min. The format is cell-based, human. Here is the method:
Because mTOR is sensitive to amino acids and regulates ribosome biogenesis (Dennis et al., 1999; Gingras et al., 2001; Schmelzle and Hall, 2000), we tested whether its activity may be sensitive to metabolic inhibitors. We used, insulin-induced S6K1 activation and 4E-BP1 phosphorylation as reporters for mTOR function in the presence of glycolytic or mitochohdrial inhibitors to reduce ATP production.
Briefly, human embryonic kidney cells (HEK293) were seeded and maintained as previously described (Pullen et al., Science 279, 707 (1998)). Confluent cells were serum starved for 20 h and then extracted (controls) or treated with 200 nM insulin in the precence or absence of 100 mM 2-deoxyglucose or 20 mM rotenone for 30 min. Cell extraction, kinase assays and Western blot analysis (used to measure S6K1 levels and T389 phosphorylation) were performed as described (Pullen et al.,1998). Phosphospecific antibodies are commercially available (e.g., New England Biolabs).

The subject of a further test is S6K1-GST. Nature of the test: Insulin-induced activation of S6K1-GST (rapamycin sensitive) in transfected HEK293 cells. In kind it is cell-based, human. The following applies: 20 nM rapamycin, 100 nM wortmannin, or 2-deoxyglucose 20, 40 and 100 mM.
From the text: as §1

For another test, the system named is Protein Kinase B (PKB). Description: Insulin-induced HA-PKB activation (S473 phosphorylation, in vitro H2B phosphorylation). The following applies: 100 mM 2-deoxyglucose, 20 nM rapamycin or 100 nM wortmannin. In kind it is cell-based, human. The protocol: as §3
The subject of a further test is GST-ΔC-S6K1. Description: Insulin-induced activation of GST-ΔC-S6K1 (rapamycin-resistant allele) in transfected HEK293 cells. In kind it is cell-based, human. The note with it: 20 nM rapamycin, 100 nM wortmannin, or 2-deoxyglucose 20, 40 and 100 mM.
From the text: as §1

For test [6], the system named is HEK293 cells (amino acid levels). Nature of the test: Levels of individual amino acids in extracts of insulin-stimulated HEK293 cells. The format is cell-based, human. The following applies: 100 mM 2-deoxyglucose. Here is the method: Levels of individual amino acids were measured in extracts prepared from insulin-stimulated HEK293 cells in the presence or absence of amino acids or with 100 mM 2-deoxyglucose treatment and expressed as a percentage of the insulin-stimulated control in the presence of amino acids. Briefly, confluent cultures of HEK293 cells were treated as described above, washed with PBS and drained thoroughly. The cells were then scraped into […] water and sonicated with four 10 sec pulses. Cell debris was removed by centrifugation and sulfosalicylic acid was added to the supernatant to a final concentration of 2%. The samples were then placed on ice for 30 min followed by centrifugation to remove precipitated proteins. The extracts were then analyzed for amino acid content with a Biochrom 20 plus amino acid analyzer (Amersham-Pharmacia Biotech).

Test [7] addresses T1, mTOR (HA-mTORwt). Description: mTOR in vitro kinase activity at varying ATP concentrations (apparent Km for ATP). In kind it is biochemical. The note with it: S6K1 T389 phosphorylation, ATP 0.2-3.0 mM. Here is the method:
as §2
Next, we measured mTOR activity in vitro at ATP concentrations that approached physiological levels of 1-5 mM In mammalian cells (Gribble et al., 2000, J.Biol.Chem. 275, 30046).

A further test relates to most protein kinases. The note with it: read-out: Km for ATP of most cellular kinases; cited from earlier work.
The mark [8] stands for this setting: insulin stimulated HEK293 transfected with HA-4E-BP1, Western blot.
Setting [9] is: summary: S6K1 T389 and 4E-BP1 S65 in insulin-stimulated HEK293.

Values joined by “and” are separate entries in the source; they are usually repeats but may differ in a detail not shown here. Equal entries are not always repeated. “Also recorded” adds a separate entry of the source. Where two headings read alike, the source gives them in different places.

Consider `O=CC[C@@H](O)[C@H](O)[C@H](O)CO` [2-deoxyglucose], for which the “inhibition of 4E-BP1 S65 phosphorylation” value in test [1] (setting [8]) is “inhibit 4EBP-1 S65 phosphorylation to background levels”. Besides, in test [1] (setting [9]), the “inhibition of phosphorylation of mTOR targets (summary of Example 1)” value (shortened to “inhibition … (summary of Example 1)”) was “able to reduce phosphorylation of mTOR targets to background levels”. Also, the “ATP levels compared to insulin stimulated control (100%)” value in [2] (20 nM 2-deoxyglucose (so in the source)) is on record as 57-59%; in test [2] (40 nM 2-deoxyglucose (so in the source)), 43-48%; in test [2] (100 nM 2-deoxyglucose (so in the source)), 32-36%. For the same compound, in test [2], the “ATP levels as a percentage of the insulin-stimulated control (100%)” value is 40-49%. For the same compound, on mTOR (HA-mTORwt) [3], the “effect on kinase activity of mTOR in vitro towards T389 of S6K1” value is listed as “no effect”. In test [4], the “TPA-induced MAPK activation, as judged by MBP phosphorylation” value is “no discernable effect”. Besides, the “effect on total amounts of aminoacylated tRNA” value in the test on aminoacylated tRNA was “Neither insulin stimulation nor 2-deoxyglucose treatment had an effect”. Besides, the “inhibition of insulin-induced S6K1 T389 phosphorylation and S6K1 activation (S6 phosphorylation)” value in test [5] is reported as “reducing phosphorylation/activation to background levels; also recorded: blocked insulin-induced activation of S6K1”. The “insulin-induced phosphorylation/activation of S6K1-GST” value with S6K1-GST is recorded as “reduced insulin-induced activation of S6K1-GST”. The “insulin-induced activation of PKB, as judged by S473 phosphorylation and in vitro phosphorylation of H2B” value in the test with Protein Kinase B (PKB) is on record as “did not inhibit”. Moreover, in the test on GST-ΔC-S6K1, the “insulin-induced phosphorylation/activation of GST-ΔC-S6K1” value is “unaffected”. Moreover, the “amino acid levels (Ala, Glu, Leu, Ile and Val) as a percentage of the insulin-stimulated control in the presence of amino acids” value in [6] is 100-120%.
`Nc1ncnc2c1ncn2[C@@H]1O[C@H](COP(=O)(O)OP(=O)(O)OP(=O)(O)O)[C@@H](O)[C@H]1O` [ATP]: the Km (in general, the substrate concentration at which the rate is half of its maximum) on mTOR (HA-mTORwt) [7] is ≥ 1000 µM and 1000 µM; in the test with most protein kinases, 10 to 20 µM.
Consider `O=C(O)CI` [iodoacetic acid], for which, in [1], the “inhibition of 4E-BP1 S65 phosphorylation” value is reported as “more efficient than dinitrophenol” and the “inhibition … (summary of Example 1)” value was “able to reduce phosphorylation of mTOR targets to background levels”.
As to `CO[C@H]1C[C@@H]2CC[C@@H](C)[C@@](O)(O2)C(=O)C(=O)N2CCCC[C@H]2C(=O)O[C@H]([C@H](C)C[C@@H]2CC[C@@H](O)[C@H](OC)C2)CC(=O)[C@H](C)/C=C(\C)[C@@H](O)[C@@H](OC)C(=O)[C@H](C)C[C@H](C)/C=C/C=C/C=C/1C` [rapamycin], the “insulin-induced activation of PKB, as judged by S473 phosphorylation and in vitro phosphorylation of H2B” value with Protein Kinase B (PKB) is “did not inhibit”.
With `C=C(C)[C@H]1Cc2c(ccc3c2O[C@@H]2COc4cc(OC)c(OC)cc4[C@@H]2C3=O)O1` [rotenone], the “inhibition of 4E-BP1 S65 phosphorylation” value in test [1] (setting [8]) is on record as “inhibitory effect”. In addition, the “inhibition … (summary of Example 1)” value in test [1] (setting [9]) was “able to inhibit phosphorylation of mTOR targets”. Besides, in [2], the “ATP levels as a percentage of the insulin-stimulated control (100%)” value is on record as 75-83%. Further, in [5], the “inhibition of insulin-induced S6K1 T389 phosphorylation and S6K1 activation (S6 phosphorylation)” value is “inhibitory effect”.

These data come from patent US20050004068A1, “Modulation of tor” (priority 2001, published 2005).
